Results on two molecules are retold here after US7939272B2, “Biological markers predictive of anti-cancer response to insulin-like growth factor-1 receptor kinase inhibitors” (OSI Pharmaceuticals, Inc., priority 2007, dated 2011).

One assay concerns H358 cells. Nature of the assay: Cell-Titer Glo cell growth inhibition. Format: cell-based, human. The settings on record: NSCLC cell line H358. The method, then:
(§1) The NSCLC lines with IGF-1R, H292, H358, H322, H441, A549, Calu6, H460, H1703 and SW1573 were cultured in the appropriate ATCC recommended supplemented media. Cell extracts were prepared by detergent lysis ((50 mM Tris-HCl, pH8, 150 mM NaCl, 1% NP-40, 0.5% NaDeoxycholate, 0.1% SDS) containing protease and phosphatase inhibitors. The soluble protein concentration was determined by micro-BSA assay (Pierce, Rockford Ill.).
(§2) IGF-1R inhibitor Compound 66 (i.e. 3-(3-Azetidin-1-ylmethyl-cyclobutyl)-1-(2-phenyl-quinolin-7-yl)-imidazo[1,5-a]pyrazin-8-ylamine; see structure below) stock concentration was 10 mM in 100% DMSO (dimethyl sulfoxide). Serial dilutions (1:3 or 1:4) were used to establish the 50% inhibitory dose of IGF-1R inhibitor. Before dosing, inhibitor was diluted in 100% DMSO, and then added to the cells at desired final concentrations in duplicates. The final DMSO concentration was between 0.3-0.5%. Compound 66 was synthesized by the methods described in published International patent application number WO 2005/097800 A1.
(§3) For measuring cell viability, Cell-Titer Glo assay was used, which is available as a kit from Promega. The basis of the assay is a luminescent quantitation of ATP present in a cell culture plate well. In essence, the greater the number of viable cells in the well, the greater the level of ATP present. The assay utilizes a substrate that binds ATP to produce a luminescent signal, which can be read on a luminometer. Unless otherwise noted, the manufacturer's instructions were followed exactly. Briefly, on Day 1, cells were plated in 120 μl of 10% serum-containing growth media at a density of 4000 cells/well in a white polystyrene 96 well assay plate. On day 2, cells were treated with 15 μl of 10× concentration of the IGF-1R inhibitor (e.g. Compound 66, PQIP) or DMSO alone for a final well volume of 150 μl. After 72 h incubation with the inhibitor, the cells were assayed. Results were calculated as a fraction of the DMSO controlled cells.

Another assay has as its system SW1573 cells. Nature of the assay: Cell-Titer Glo cell growth inhibition. It counts as cell-based, human. The method, then: as §1, §2, §3
For another assay, the system named is H292 cells. Description: Cell-Titer Glo cell growth inhibition. Format: cell-based, human. The settings on record: NSCLC cell line H292. The method, then:
as §1, §2, §3

A further assay deals with H441 cells. Nature of the assay: Cell-Titer Glo cell growth inhibition. Format: cell-based, human. The settings on record: NSCLC cell line H441. The method, then: as §1, §2, §3
Another assay has as its system A549 cells. Nature of the assay: Cell-Titer Glo cell growth inhibition. Format: cell-based, human. The settings on record: NSCLC cell line A549. The method, then:
as §1, §2, §3

The next assay concerns the target IGF-1R kinase (Homo sapiens, UniProt P08069). Description: IGF-1R kinase inhibition. Format: biochemical. The settings on record: IGF-1R kinase inhibitor potency, approx.
The test system of a further assay is H460 cells. Description: Cell-Titer Glo cell growth inhibition. It counts as cell-based, human. The method, then:
as §1
IGF-1R inhibitor Compound 66 (i.e. 3-(3-Azetidin-1-ylmethyl-cyclobutyl)-1-(2-phenyl-quinolin-7-yl)-imidazo[1,5-a]pyrazin-8-ylamine; see structure below) stock concentration was 10 mM in 100% DMSO (dimethyl sulfoxide). Serial dilutions (1:3 or 1:4) were used to establish the 50% inhibitory dose of IGF-1R inhibitor. Before dosing, inhibitor was diluted in 100% DMSO, and then added to the cells at desired final concentrations in duplicates. The final DMSO concentration was between 0.3-0.5%. […]
(§4) For measuring cell viability, Cell-Titer Glo assay was used, which is available as a kit from Promega. The basis of the assay is a luminescent quantitation of ATP present in a cell culture plate well. […] The assay utilizes a substrate that binds ATP to produce a luminescent signal, which can be read on a luminometer. […] Results were calculated as a fraction of the DMSO controlled cells.

A further assay concerns MiaPaca-2 cells. Nature of the assay: Cell-Titer Glo cell growth inhibition. It counts as cell-based, human. The note with it: MiaPaca-2, growth inhibition by an IGF-1R kinase inhibitor.
From the text: (§5) The cell lines HCT-116, HT-29, GEO, Colo205, SW480, SW620, BxPC3, HPAC, CFPAC-1, MiaPaca-2, Panc1, A1165, MDA-MB-231, MDA-MB-435, DU4475, and MDA-MB468 were routinely cultured in media as prescribed by the ATCC containing 10% FCS. With the exception of GEO tumor cells (obtained from Roswell Park Cancer Institute (RPCI)), and A1165 (obtained from FCRF (NCI-Frederick Cancer Research Facility)) all tumor cells were obtained from the ATCC.
(§6) IGF-1R inhibitor Compound PQIP: Synthesis of PQIP: cis-3-[3-(4-Methyl-piperazin-1-yl)-cyclobutyl]1-(2-phenyl-quinolin-7-yl)-imidazo[1,5-a]pyrazin-8-ylamine (PQIP; see structure below), is a 1,3-disubstituted-8-amino-imidazopyrazine derivative synthesized by the methods described in patent application number WO 2005/097800 A1. Compound identity and purity (>99%) was verified by ^1H and ^13C nuclear magnetic resonance, mass spectrometry (MS), and high-performance liquid chromatography using Bruker Advance 400, WatersMicromass ZQ, and Waters LC Module I Plus instruments, respectively, as well as by elemental analysis. PQIP was dissolved in DMSO at 10 mmol/L for use in biochemical or cellular assays done in vitro. For in vivo studies, PQIP was dissolved in 25 mmol/L tartaric acid at an appropriate concentration to deliver the desired dose at 20 mL/kg by oral gavage.
as §3

The test system of another assay is Panc1 cells. Description: Cell-Titer Glo cell growth inhibition. The note with it: Panc1, growth inhibition by an IGF-1R kinase inhibitor. Format: cell-based, human.
From the text: as §5, §6, §3

The subject of the next assay is BxPC3 cells. Nature of the assay: Cell-Titer Glo cell growth inhibition. It counts as cell-based, human. The settings on record: BxPC3, growth inhibition by an IGF-1R kinase inhibitor.
From the text: as §5, §6, §3

For the next assay, the system named is CFPAC cells. Nature of the assay: Cell-Titer Glo cell growth inhibition. It counts as cell-based, human. The note with it: growth inhibition by an IGF-1R kinase inhibitor.
From the text: as §5, §6, §3

The subject of a further assay is HT-29 cells. Description: Cell-Titer Glo cell growth inhibition. It counts as cell-based, human. The note with it: HT-29, growth inhibition by an IGF-1R kinase inhibitor.
From the text: as §5, §6, §3

The subject of a further assay is HPAC cells. Description: Cell-Titer Glo cell growth inhibition. It counts as cell-based, human. The note with it: growth inhibition by an IGF-1R kinase inhibitor.
From the text: as §5, §6, §3

A further assay deals with Colo205 cells. Nature of the assay: Cell-Titer Glo cell growth inhibition. The note with it: Colo205, growth inhibition by an IGF-1R kinase inhibitor. It counts as cell-based, human.
From the text: as §5, §6, §3

Another assay concerns GEO cells. Nature of the assay: Cell-Titer Glo cell growth inhibition. Format: cell-based, human. The settings on record: growth inhibition by an IGF-1R kinase inhibitor.
From the text: as §5, §6, §3

The next assay relates to MCF-7 cells. Description: Cell-Titer Glo cell growth inhibition. The note with it: Homo sapiens, MCF7, 3 μM PQIP, activating mutation in PI3K. It counts as cell-based. The method, then:
as §3, with “The” for “For measuring cell viability, Cell-Titer Glo assay was used, which is available as a kit from Promega. The”, “On day 2, cells were treated with 15 μl of 10× concentration of the IGF-1R inhibitor (e.g. Compound 66, PQIP) or DMSO alone for a final well volume of 150 μl.” left out

Assay [1] has as its system panel comprised of 28 tumor cell lines. Nature of the assay: Cell-Titer Glo cell growth inhibition, tumor cell line panel. The note with it: for inhibition at 3 µM: Homo sapiens, 3 μM PQIP, 28 tumor cell lines. Format: cell-based, human. The method, then: as §1, §5
as §6, with “For in vivo studies, PQIP was dissolved in 25 mmol/L tartaric acid at an appropriate concentration to deliver the desired dose at 20 mL/kg by oral gavage.” left out
as §4

The subject of a further assay is DLD-1 cells. Nature of the assay: Cell-Titer Glo cell growth inhibition. It counts as cell-based, human. The method, then:
as §3, with “IGF-1R inhibitor Compound PQIP: […] PQIP was dissolved in DMSO at 10 mmol/L for use in biochemical or cellular assays done in vitro. For in vivo studies, PQIP was dissolved in 25 mmol/L tartaric acid at an appropriate concentration to deliver the desired dose at 20 mL/kg by oral gavage. For” for “For”

In another assay the test system is RKO cells. Nature of the assay: Cell-Titer Glo cell growth inhibition. It counts as cell-based, human. The method, then: as §3, with “IGF-1R inhibitor Compound PQIP: […] PQIP was dissolved in DMSO at 10 mmol/L for use in biochemical or cellular assays done in vitro. For in vivo studies, PQIP was dissolved in 25 mmol/L tartaric acid at an appropriate concentration to deliver the desired dose at 20 mL/kg by oral gavage. For” for “For”

For the next assay, the system named is HCT-116 cells. Nature of the assay: Cell-Titer Glo cell growth inhibition. The settings on record: Homo sapiens, 3 μM PQIP, activating mutation in PI3K. It counts as cell-based.
From the text: as §5
IGF-1R inhibitor Compound PQIP: Synthesis of PQIP: cis-3-[3-(4-Methyl-piperazin-1-yl)-cyclobutyl]1-(2-phenyl-quinolin-7-yl)-imidazo[1,5-a]pyrazin-8-ylamine (PQIP; see structure below), is a 1,3-disubstituted-8-amino-imidazopyrazine derivative synthesized by the methods described in patent application number WO 2005/097800 A1. […]
as §4

Read-outs that look alike come from different tables or passages of the source. Some results are limits rather than exact numbers.

Sequence of IGF-1R kinase (P08069 31-1367): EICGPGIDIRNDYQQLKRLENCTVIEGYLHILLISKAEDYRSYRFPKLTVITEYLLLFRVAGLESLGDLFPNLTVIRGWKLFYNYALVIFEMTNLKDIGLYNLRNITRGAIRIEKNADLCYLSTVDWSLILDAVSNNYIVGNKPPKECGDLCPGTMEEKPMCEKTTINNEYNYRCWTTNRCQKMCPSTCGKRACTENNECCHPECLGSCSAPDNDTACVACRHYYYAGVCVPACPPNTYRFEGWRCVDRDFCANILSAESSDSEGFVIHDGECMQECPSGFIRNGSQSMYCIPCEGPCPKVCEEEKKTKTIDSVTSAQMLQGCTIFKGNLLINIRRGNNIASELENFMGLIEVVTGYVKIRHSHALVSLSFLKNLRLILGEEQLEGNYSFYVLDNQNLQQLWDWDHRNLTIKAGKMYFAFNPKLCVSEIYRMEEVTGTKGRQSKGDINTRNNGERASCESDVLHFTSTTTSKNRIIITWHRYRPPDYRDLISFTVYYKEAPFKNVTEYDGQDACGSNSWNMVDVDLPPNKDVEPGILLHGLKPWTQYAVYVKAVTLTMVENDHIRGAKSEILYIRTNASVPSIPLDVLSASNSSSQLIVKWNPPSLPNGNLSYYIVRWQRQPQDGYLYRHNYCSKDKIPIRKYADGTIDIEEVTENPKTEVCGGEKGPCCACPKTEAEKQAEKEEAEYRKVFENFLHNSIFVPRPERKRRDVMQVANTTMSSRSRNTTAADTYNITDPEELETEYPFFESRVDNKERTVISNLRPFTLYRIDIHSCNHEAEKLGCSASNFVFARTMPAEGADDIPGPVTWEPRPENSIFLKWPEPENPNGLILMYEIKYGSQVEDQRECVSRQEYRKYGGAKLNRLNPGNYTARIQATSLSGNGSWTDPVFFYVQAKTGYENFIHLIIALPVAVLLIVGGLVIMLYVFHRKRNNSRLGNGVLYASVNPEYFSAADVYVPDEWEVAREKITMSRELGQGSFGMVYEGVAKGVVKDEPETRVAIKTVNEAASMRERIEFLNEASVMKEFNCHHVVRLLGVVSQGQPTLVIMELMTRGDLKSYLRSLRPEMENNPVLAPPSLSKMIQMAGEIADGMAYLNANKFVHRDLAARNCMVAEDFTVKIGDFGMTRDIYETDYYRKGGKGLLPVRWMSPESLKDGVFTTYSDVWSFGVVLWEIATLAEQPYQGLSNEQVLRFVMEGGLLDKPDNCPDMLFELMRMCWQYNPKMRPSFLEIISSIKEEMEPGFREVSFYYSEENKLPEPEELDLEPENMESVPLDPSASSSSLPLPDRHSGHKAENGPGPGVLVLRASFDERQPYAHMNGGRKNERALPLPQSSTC

Take `Nc1nccn2c1c(-c1ccc3ccc(-c4ccccc4)nc3c1)nc2[C@H]1C[C@@H](CN2CCC2)C1` [Compound 66, 3-(3-Azetidin-1-ylmethyl-cyclobutyl)-1-(2-phenyl-quinolin-7-yl)-imidazo[1,5-a]pyrazin-8-ylamine]: the “sensitivity to Compound 66-mediated growth inhibition” value with H358 cells is listed as “sensitive”; with SW1573 cells (NSCLC cell line SW1573), “relatively insensitive”; in the assay on H292 cells, “sensitive”; in the assay with H441 cells it was “sensitive”; in the assay with A549 cells it was “intermediate sensitivity”; in the assay with H460 cells (NSCLC cell line H460) it was “relatively insensitive”. In addition, in the assay on SW1573 cells (Homo sapiens, SW1573 cells, 10 μM inhibitor, read-out: growth inhibition in vitro), the inhibition – broadly, how much of the control response was suppressed – at 10 µM was below 10%. Moreover, the IC50 (as a rule, the concentration at which inhibition is half-maximal) at IGF-1R kinase is around 50 nM.

Turning to `CN1CCN([C@H]2C[C@@H](c3nc(-c4ccc5ccc(-c6ccccc6)nc5c4)c4c(N)nccn43)C2)CC1` [PQIP, cis-3-[3-(4-Methyl-piperazin-1-yl)-cyclobutyl]1-(2-phenyl-quinolin-7-yl)-imidazo[1,5-a]pyrazin-8-ylamine], the “sensitivity to IGF-1R inhibition” value in the assay on MiaPaca-2 cells is given as “relatively insensitive”; in the assay on Panc1 cells it was “relatively insensitive”; in the assay with BxPC3 cells it was “relatively sensitive”; with CFPAC cells, “relatively sensitive”; in the assay with HT-29 cells, “relatively sensitive”; with HPAC cells it was “relatively sensitive”. Moreover, the “sensitivity to IGF-1R inhibition” value was “relatively sensitive” in the assay on Colo205 cells; “relatively sensitive” in the assay with GEO cells; “relatively sensitive” with DLD-1 cells (DLD1, growth inhibition by an IGF-1R kinase inhibitor); “relatively insensitive” in the assay on RKO cells (RKO, growth inhibition by an IGF-1R kinase inhibitor). For the same molecule, the inhibition at 3 µM with MCF-7 cells is above 70%; in [1] (read-out: median growth inhibition for the panel) it was 37%; in assay [1] (72 hours after dosing, read-out: % maximal growth inhibition, range of sensitivities over the panel), 2 to 72%; in the assay on DLD-1 cells (Homo sapiens, DLD-1 cells, 3 μM PQIP, activating mutation in PI3K), below 20%; in the assay with RKO cells (Homo sapiens, RKO cells, 3 μM PQIP, activating mutation in PI3K), below 20%; in the assay with H460 cells (Homo sapiens, NCI-H460 cells, 3 μM PQIP, activating mutation in PI3K), below 20%. The molecule further registered an inhibition at 3 µM in the assay with HCT-116 cells above 70%. For the same molecule, in assay [1] (all cell lines, data not shown), the “effects of varying concentrations on cell proliferation” value is “dose-dependent”.
